{
  "source": "patent US10729668B2",
  "about": "“Ketobutyrate compounds and compositions for treating age-related symptoms and diseases” (The Regents of the University of California, priority 2014, dated 2020)",
  "key": {"C57BL/6 male mice": {"test_system": "C57BL/6 male mice", "test": "Transverse aortic constriction (TAC) induced heart failure and cardiac hypertrophy", "format": "in vivo, mouse", "procedure": "Surgical procedure was performed one day before treatment with vehicle or α-KB. Cardiac output was assessed 3 weeks post-treatment by determining the cardiac ejection fraction (EF) by echo.\nTransverse aortic constriction (TAC) in mice was used to induce pressure overload-induced heart failure and cardiac hypertrophy. TAC surgical procedure was performed one day before treatment with vehicle or α-KB. C57BL/6 male mice were treated with α-KB at 30 mg/kg body weight per day in drinking water. Cardiac output was assessed 3 weeks post-treatment by determining the cardiac ejection fraction (EF) measured by Echo."}, "C. elegans": {"test_system": "C. elegans", "test": "Lifespan of adult C. elegans on treatment plates", "format": "in vivo, Caenorhabditis elegans", "procedure": "C. elegans were synchronized by performing either a timed egg lay or an egg preparation (mix <100 gravid worms in 70 μl M9 buffer, 25 μl bleach, and 5 μl 10 N NaOH). Once the worms reached adulthood, they were picked onto NGM treatment plates containing 1.5% dimethyl sulfoxide (DMSO; Sigma D8418), 49.5 μM 5-fluoro-2′-deoxyuridine (FUDR, Sigma F0503), 50 μg/ml ampicillin, and α-KB (Sigma K401). Plates containing α-KB were adjusted to pH 6.0 (i.e., the same pH as the control plates) by the addition of NaOH. Treatment plates were seeded with OP50 E. coli as the C. elegans food source. […] Worms were moved to new plates every 4 days. All lifespan experiments were conducted at 20° C."}, "male mice": {"test_system": "male mice", "test": "In vivo ischemia reperfusion injury, coronary artery occlusion", "parameters": "species or system mouse", "conditions": "800 μM single bolus via tail vein at onset of reperfusion, 24 hours reperfusion, n=6", "procedure": "The LAD is occluded in male mice for 30 minutes followed by a 24 hour reperfusion. At the onset of reperfusion one bolus of α-KB or PBS was applied via tail vein.\nTo examine the cardioprotective role of α-KB, an in vivo model of ischemia reperfusion injury was used. The left coronary artery was occluded for 30 minutes in male mice followed by 24 hours of reperfusion. One single bolus of PBS (vehicle control) or α-KB (800 μM) was applied through the tail vein at the onset of reperfusion (FIG. 9A)."}, "pyruvate dehydrogenase": {"molecular_target": "T1, pyruvate dehydrogenase (Bos taurus, UniProt A7MB35+P11966)", "T1 construct": "purchased Abcam ab110338 (lysate); ab109902 (assay kit); host or cells: bovine heart mitochondrial lysate", "T1 sequence (A7MB35 30-390)": "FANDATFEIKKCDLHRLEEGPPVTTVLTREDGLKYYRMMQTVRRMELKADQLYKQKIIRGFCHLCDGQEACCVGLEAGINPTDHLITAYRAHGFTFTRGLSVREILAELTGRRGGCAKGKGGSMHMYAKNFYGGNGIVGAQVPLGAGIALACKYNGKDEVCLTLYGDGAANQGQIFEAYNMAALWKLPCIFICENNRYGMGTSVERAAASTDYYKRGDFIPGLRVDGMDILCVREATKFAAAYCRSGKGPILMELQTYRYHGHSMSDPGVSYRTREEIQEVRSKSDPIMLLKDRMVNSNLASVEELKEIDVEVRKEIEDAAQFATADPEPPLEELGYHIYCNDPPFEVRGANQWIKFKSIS", "T1 sequence (P11966 31-359)": "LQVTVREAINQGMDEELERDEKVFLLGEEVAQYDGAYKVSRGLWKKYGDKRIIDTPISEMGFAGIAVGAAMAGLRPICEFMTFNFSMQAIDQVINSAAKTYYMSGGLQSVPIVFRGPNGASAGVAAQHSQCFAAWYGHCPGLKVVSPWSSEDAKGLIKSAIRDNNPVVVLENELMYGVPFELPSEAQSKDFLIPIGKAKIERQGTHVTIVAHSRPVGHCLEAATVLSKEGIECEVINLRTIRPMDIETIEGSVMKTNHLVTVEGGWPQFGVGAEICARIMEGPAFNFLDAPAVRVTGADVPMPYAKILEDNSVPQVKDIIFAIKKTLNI", "T1 sequence (P11180 87-647 partner)": "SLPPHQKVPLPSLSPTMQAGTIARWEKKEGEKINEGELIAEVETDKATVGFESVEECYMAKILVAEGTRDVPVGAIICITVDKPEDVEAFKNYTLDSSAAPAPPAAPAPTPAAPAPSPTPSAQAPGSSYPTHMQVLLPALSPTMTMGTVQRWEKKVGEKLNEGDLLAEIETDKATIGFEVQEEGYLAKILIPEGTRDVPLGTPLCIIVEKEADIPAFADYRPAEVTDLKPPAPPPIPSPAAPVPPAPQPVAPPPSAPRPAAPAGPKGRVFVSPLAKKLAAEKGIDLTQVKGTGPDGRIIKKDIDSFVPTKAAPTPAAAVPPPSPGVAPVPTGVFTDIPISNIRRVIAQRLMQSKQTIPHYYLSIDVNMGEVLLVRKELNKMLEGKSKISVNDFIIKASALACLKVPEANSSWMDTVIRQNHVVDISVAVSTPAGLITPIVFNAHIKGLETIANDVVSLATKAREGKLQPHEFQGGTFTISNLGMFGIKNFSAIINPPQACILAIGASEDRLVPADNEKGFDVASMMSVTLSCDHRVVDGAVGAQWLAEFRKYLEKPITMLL", "T1 sequence (P22439 54-501 partner)": "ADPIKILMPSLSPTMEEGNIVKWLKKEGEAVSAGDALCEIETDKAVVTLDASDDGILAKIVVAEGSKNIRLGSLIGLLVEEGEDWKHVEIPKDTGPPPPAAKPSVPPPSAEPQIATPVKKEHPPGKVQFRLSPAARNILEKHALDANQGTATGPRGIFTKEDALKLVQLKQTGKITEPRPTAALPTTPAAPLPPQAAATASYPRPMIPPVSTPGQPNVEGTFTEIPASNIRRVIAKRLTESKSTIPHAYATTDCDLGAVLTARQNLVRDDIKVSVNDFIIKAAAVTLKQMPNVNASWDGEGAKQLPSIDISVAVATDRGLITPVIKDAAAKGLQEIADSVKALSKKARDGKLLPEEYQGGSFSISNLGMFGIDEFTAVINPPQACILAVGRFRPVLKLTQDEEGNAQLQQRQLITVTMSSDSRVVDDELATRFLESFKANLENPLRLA", "T1 sequence (F1N206 36-509 partner)": "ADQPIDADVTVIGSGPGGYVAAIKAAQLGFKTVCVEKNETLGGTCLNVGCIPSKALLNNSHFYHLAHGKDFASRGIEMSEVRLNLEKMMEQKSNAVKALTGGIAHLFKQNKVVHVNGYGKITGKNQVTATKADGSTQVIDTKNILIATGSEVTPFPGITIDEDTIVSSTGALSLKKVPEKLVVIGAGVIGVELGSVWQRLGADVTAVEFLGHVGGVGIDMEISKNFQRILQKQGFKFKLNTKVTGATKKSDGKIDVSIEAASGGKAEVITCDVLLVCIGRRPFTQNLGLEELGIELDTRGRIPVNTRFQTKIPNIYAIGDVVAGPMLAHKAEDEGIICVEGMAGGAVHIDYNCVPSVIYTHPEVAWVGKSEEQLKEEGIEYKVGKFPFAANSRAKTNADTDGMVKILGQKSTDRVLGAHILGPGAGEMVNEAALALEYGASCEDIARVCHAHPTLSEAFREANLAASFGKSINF", "test": "Pyruvate Dehydrogenase (PDH) Enzyme Activity Microplate Assay", "format": "biochemical, bovine", "conditions": "vehicle mean as 100 percent", "procedure": "To examine the effect of α-KB on pyruvate dehydrogenase, the Pyruvate Dehydrogenase (PDH) Enzyme Activity Microplate Assay Kit (Abcam, ab109902) was used. The assay was performed according to the protocol provided. Detergent was added to bovine heart mitochondrial lysate (Abcam, ab110338) and followed by an incubation at 4° C. for 20 minutes to release PDH. The sample was then centrifuged at 14,000×g for 10 minutes. Supernatant was diluted with the incubation buffer and added to a PDH antibody-coated 96-well plate. After 3 hours incubation followed by 2× wash with stabilizer buffer, the wells were added with 200 μL of reaction mix containing 10, 20, 50, 200, and 800 μM α-KB or vehicle control (distilled water). Each condition was performed in triplicates. Kinetic measurements of absorbance at 450 nm with 1 minute intervals were taken, and PDH activity was calculated from the slope of the absorbance to time. The readings were normalized to vehicle mean (as 100 percent)."}, "[1]": {"test_system": "Aged mice (22-23 month old C57BL/6J)", "test": "Aged mice fed α-KB in drinking water for 7 months", "format": "in vivo", "procedure": "Aged mice (22-23 month old C57BL/6J), including both males and females, were fed either water or α-KB (8 mM in drinking water or 90 mg/kg body weight) for 7 months. […] Mice were examined at least twice a week for signs of ill health, and severely sick or immobilized mice were subject to termination. The lifespan of α-KB treated male group was extended. All the males in untreated control group (5 of 5) died or were terminated due to severe illness before the completion of the 7 months test. Remarkably, most of the males in the α-KB treated group (4 of 5) lived healthily and were still in excellent health at the end of the 7 months study period."}, "[2]": {"molecular_target": "TOR (target of rapamycin) (Homo sapiens, UniProt P42345)", "test": "TOR inhibition"}, "[3]": {"test_system": "cardiomyocytes of neonatal rats", "test": "Catecholamine (ISO, PE) induced hypertrophy of cardiomyocytes", "format": "cell-based, rat", "conditions": "1 mM", "from_the_text": "In additional experiments, cardiomyocytes of neonatal rats were isolated by collagenase digestion and cultured overnight in DMEM containing 10% FCS, and then culture medium was changed to serum-free high glucose DMEM with supplement of ITS (insulin, transferrin, and sodiumselenite).\nCatecholamine-induced cardiac hypertrophy."}, "Isolated hearts": {"test_system": "Isolated hearts", "test": "Isolated heart ischemia and reperfusion (LVDP)", "conditions": "30 minutes ischemia, 60 minutes reperfusion, post-ischemic administration", "procedure": "Isolated hearts were subjected to 30 minutes ischemia followed by 60 minutes of reperfusion with control buffer, 2-KB, (R)-2-hydroxybutyrate, (R)-3-hydroxybutyrate (also known as ketone body), α-KG, and the Complex I inhibitor rotenone. LVDP is shown as a function of time."}, "HCV": {"test_system": "HCV", "test": "Renilla reporter HCV infection of Huh7.5 cells, luciferase activity", "format": "cell-based", "conditions": "1 mM and 1 μM, 72 hours post treatment", "procedure": "As subjects age, their susceptibility to infection increases. Therefore, to determine whether α-KB reduces ones susceptibility to age-related infection, Huh7.5 cells were infected with the Renilla reporter HCV for 5 hours and subsequently treated with 1 mM and 1 μM of α-KB. 72 hours post treatment, the cells were lysed and luciferase activity was measured. JG-98, which is a suppressor of viral assembly, was used as a positive control and water was used as a negative control. […] To ensure that the anti-viral activity of α-KB is not the result of cytotoxicity, Huh7.5 cells were treated with 1 mM, 100 μM, 10 μM, 1 μM, and 100 nM α-KB. MTT assays were performed every 24 hours up to 72 hours post treatment. Luteolin, an anti-cancer compound which is cytotoxic, was used as a positive control and water was used as a negative control."}},
  "data": [
    {"smiles": "CCC(=O)C(=O)O", "note": "[α-KB, α-ketobutyrate]", "values": [
      {"measurement": "mortality", "setting": "C57BL/6 male mice", "value": "appeared to decrease mortality"},
      {"measurement": "heart (mg)/body (g) ratio", "setting": "C57BL/6 male mice; end of experiment (5 weeks), Mean, STEDV", "value": "10.72±1.98"},
      {"measurement": "lifespan as compared to untreated control subjects", "setting": "C. elegans; adult C. elegans, 20° C.", "value": "extends the lifespan"},
      {"measurement": "potency relative to α-KG in treating, inhibiting, or reducing aging and age-related symptoms", "setting": "C. elegans; in vivo", "value": "about 1 fold"},
      {"measurement": "ratio of infarct size to AAR", "setting": "male mice", "value": "31.2±3.6"},
      {"measurement": "normalized PDH activity (percentage)", "setting": "pyruvate dehydrogenase; 200 μM", "value": "68.0±11.8", "unit": "percentage"},
      {"measurement": "normalized PDH activity (percentage)", "setting": "pyruvate dehydrogenase; 800 μM", "value": "41.6±7.89", "unit": "percentage"},
      {"measurement": "adverse effects", "setting": "[1]; 8 mM in drinking water or 90 mg/kg body weight, 7 months", "value": "no adverse effects"},
      {"measurement": "gray hair versus untreated group", "setting": "[1]; aged female mice", "value": "reduced"},
      {"measurement": "lifespan, females, treated versus untreated", "setting": "[1]; aged female mice", "value": "indistinguishable"},
      {"measurement": "hair density versus untreated control", "setting": "[1]; aged female mice, 7 months", "value": "higher"},
      {"measurement": "effect on gray hair and hair density", "setting": "[1]; aged male mice", "value": "minimal"},
      {"measurement": "lifespan, male group", "setting": "[1]; aged male mice", "value": "extended"},
      {"measurement": "males alive and healthy at end of the 7 months study period", "setting": "[1]; aged male mice", "value": "4 of 5"},
      {"measurement": "cataracts", "setting": "[1]; aged mice", "value": "no cataracts"},
      {"measurement": "liver appearance", "setting": "[1]; male and female aged mice", "value": "greatly improved liver appearance"},
      {"measurement": "inhibition of TOR", "setting": "[2]", "value": "does not inhibit"},
      {"measurement": "induced overexpression of ANF and BNP", "setting": "[3]", "value": "suppressed"},
      {"measurement": "ISO- and PE-induced hypertrophy", "setting": "[3]; 48 hours", "value": "completely abolished"},
      {"measurement": "heart function after ischemia (LVDP)", "setting": "Isolated hearts", "value": "restores heart function after ischemia"},
      {"measurement": "HCV infection (luciferase activity)", "setting": "HCV", "value": "inhibits or reduces viral infection"}
    ]}
  ]
}
